Measured values: US20240287463A1, “INDUCIBLE TISSUE CONSTRUCTS AND USES THEREOF” (Massachusetts Institute of Technology, priority 2020, published 2024)

Legend:
[1] = test system: HUVECs; assay: vascular perfusion in tri-culture microfluidic devices; type: cell-based, human; settings: 50 nM CID after 5 days of tri-culture
Text: Given that fibroblasts are only transiently required for supporting the formation of a functional vasculature, it was investigated whether CAMEO could be used in the vascularization of tissue constructs with organ-specific parenchymal cells without negatively affecting the function of the parenchymal cells. To investigate this, a tri-culture system of HUVECs, iCasp9-HDFs, and primary human hepatocytes was employed in the microfluidic device. Using the methods described in Example 5, a solution of HUVECs (3 million cells/mL), iCasp-9 HDFs (total of 6 million cells/mL), hepatic aggregates (0.36 million aggregates/mL with about 150 hepatocytes per aggregate), fibrinogen (2.5 mg/mL), thrombin (1 U/mL) was made in a 1:1 mixed media of EGM-2 and hepatocyte maintenance media. After 5 days of tri-culture, the devices were treated with 50 nM CID to remove the iCasp9-HDFs, or with vehicle control. All samples were fixed at day 7 to evaluate vascular perfusion (FIG. 8A). […] To evaluate whether the hepatocytes remained functional after CID treatment, levels of albumin and urea, markers for hepatic protein synthesis function and nitrogen metabolism, respectively, were measured in the media.

[2] = test system: HUVECs; assay: vascular network in HUVEC/iCasp9-HDF microfluidic devices after fibroblast removal (dextran perfusion); type: cell-based, human
Protocol: More specifically, the molds for the 2-channel microfluidic devices were constructed using stereolithography (Proto Labs). Polydimethylsiloxane (PDMS) was cured at a standard mixing ratio overnight at 60° C. in the mold, and individual devices were cut and plasma-bonded to glass slides. To enhance ECM bonding to PDMS, the surface inside the tissue chamber of the devices was functionalized with 0.01% poly-L-lysine and 1% glutaraldehyde following plasma-activation and washed overnight in DI water. On the day of seeding, devices were soaked in 70% ethanol (EtOH) and dried. Acupuncture needles (300 μm diameter) (Hwato) were blocked in 0.1% (w/v) bovine serum albumin (BSA) (Sigma) in phosphate buffer saline (PBS) for 45 minutes and inserted through the two needle guides. Devices with needles were UV-sterilized for 15 minutes. Once the needles were inserted, a fibrinogen solution containing human umbilical vein endothelial cells (HUVECs) and growth-arrested human dermal fibroblasts (HDFs) were added into the tissue chamber with thrombin. To prepare the cells for seeding, HDFs or iCasp-9 HDFs were growth-arrested with 10 μg/mL mitomycin in FGM-2 for 2.5 hours and thoroughly washed 5 times in FBM. Both HUVECs and HDFs were lifted from culture plates using TrypLE Express (Gibco), centrifuged at 200 g for 4 minutes, and resuspended to a concentration of 20 million cells/mL in EGM-2. A solution of HUVECs (3 million cells/mL), HDFs or iCasp-9 HDFs (0, 1 million, 3 million, or 6 million cells/mL), fibrinogen (2.5 mg/mL), thrombin (1 U/mL) in EGM-2 was prepared for the bulk hydrogel region of each device. After the addition of thrombin, the solution was quickly injected into the tissue chamber, and the devices were repeatedly rotated while the solution crosslinked. Appropriate media was added to each well of the device, and the devices were placed in the incubator (37° C., 5% CO2). After 15 minutes, the needles were carefully removed from the devices to create 300 μm hollow channels between the wells. Each channel of the device was seeded with additional HUVECs at 2 million cells/ml for at least 5 minutes on each side (top and bottom) in the incubator. Each device received 200 μl of appropriate media daily and cultured on the rocker inside the incubator. Once the fibrinogen polymerized into fibrin, the needles were removed to create two hollow, microfluidic channels. These channels were then seeded with additional HUVECs to line the walls in a monolayer.
Vessel networks were analyzed by fixing all devices with 4% PFA for 30 minutes on a rocker and washing with PBS overnight at 4° C. The devices were then blocked in 3% BSA overnight at 4° C. Lectin (UEA DyLight 649, Vector Labs) was diluted in the blocking solution at 1:100 dilution and added to the devices for another 4° C. overnight incubation. Devices were then washed overnight with PBS at 4° C. and kept in PBS with 0.02% (w/v) sodium azide at 4° C. until imaging. Before imaging, a solution of 500 kDa fluorescein isothiocyanate (FITC)- or tetramethylrhodamine isothiocyanate (TRITC)-conjugated dextran (0.15 mg/ml) was added to one of the microfluidic channels to generate gravity-driven hydrostatic pressure between the two channels of the device. All device images were then captured by a Leica SP8 confocal microscope (Leica, Wetzlar, Germany) using either a Leica 10×/0.30NA W U—V-I WD-3.60 Water or 25×/0.95NA W VISIR WD-2.50 Water objective and Leica LAS X imaging software. […]

[3] = test system: primary human hepatocytes; assay: hepatocyte albumin and urea in tri-culture microfluidic devices; type: cell-based; settings: 50 nM CID after 5 days of tri-culture
Text: Specifically, MPCC were fabricated as described previously (S. R. Khetani and S. N. Bhatia (2005) Nat. Biotechnol 26, 120; S. March et al. (2015) Nat. Protoc. 10, 2007). Briefly, collagen was adsorbed in each well of a 96 well plate (glass bottom), and then patterned using an elastomeric polydimethysiloxane mold and oxygen plasma gas ablation. Human hepatocytes were thawed and seeded (70 k/well) on the collagen islands (500 μm with 1,200 μm center-to-center spacing). Adhered hepatocytes (˜10 k/well) were allowed to spread overnight before fibroblasts were seeded for co-culture (7 k/well). Supernatant was collected from cultures every other day and stored at −20° C. Human albumin was quantified using an enzyme-linked immunosorbent assay using a sheep anti-rat albumin antibody (ELISA) (Bethyl Laboratories) and 3,3′,5,5′-tetramethylbenzidine (TMB, Thermo Fisher). Urea concentration was measured using a colorimetric (diacetylmonoxime) assay with acid and heat (Stanbio Labs). CYP3A4 activity was assessed with the luminogenic P450-GloTM CYP450 assay kit (Promega) for nonlytic assays using cultured cells. Cultures were pre-treated with 2 μM rifampin or 1:1,000 DMSO vehicle control prepared in hepatocyte maintenance media for 72 hours (daily replenishment) where indicated.
Given that fibroblasts are only transiently required for supporting the formation of a functional vasculature, it was investigated whether CAMEO could be used in the vascularization of tissue constructs with organ-specific parenchymal cells without negatively affecting the function of the parenchymal cells. To investigate this, a tri-culture system of HUVECs, iCasp9-HDFs, and primary human hepatocytes was employed in the microfluidic device. […] To evaluate whether the hepatocytes remained functional after CID treatment, levels of albumin and urea, markers for hepatic protein synthesis function and nitrogen metabolism, respectively, were measured in the media.

acute effects on HUVECs / noticeable deterioration of the vascular structure ([2]; 10 nM CID after 7 days of co-culture): not observed | secretive functions of the hepatocytes [3]: did not negatively affect
SMILES: CC[C@H](C(=O)N1CCCC[C@H]1C(=O)O[C@H](CCc1ccc(OC)c(OC)c1)c1cccc(OCC(=O)NCC(CNC(=O)COc2cccc([C@@H](CCc3ccc(OC)c(OC)c3)OC(=O)[C@@H]3CCCCN3C(=O)[C@@H](CC)c3cc(OC)c(OC)c(OC)c3)c2)CN(C)C)c1)c1cc(OC)c(OC)c(OC)c1 [CID, AP20187]
vascular perfusion at day 7 [1]: formed perfusable vasculature | dextran transport of endothelial network at day 7 ([2]; 50 nM CID at day 0): none of these structures could transport dextran | perfusion of endothelial network at day 7 ([2]; 50 nM CID at day 1): little to no perfusion | endothelial network at day 7 ([2]; 50 nM CID at day 3 or day 5): highly interconnected and perfusable endothelial networks | average diameter of the perfused vessels versus control ([2]; all conditions except day 0 deletion): comparable | secreted albumin versus vehicle control ([3]; day 7): statistically higher level | secreted urea versus vehicle control ([3]; day 7): statistically higher level
